Values joined by “and” are separate entries in the source; they are usually repeats but may differ in a detail not shown here. Equal entries are not always repeated.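 Values below derive from 48-hour exposures of cells grown in 96-well plates, with endpoints linearly interpolated between the two concentrations bracketing the appropriate inhibition level. Here, GI50 denotes the concentration required for 50% inhibition of growth. Definition used: TGI = concentration required for complete inhibition of growth.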
Legend:
Experiment in all cases: NCI tumour cell line growth inhibition, 48 h
[1] = system: 786-0 renal
[2] = system: A498 renal
[3] = system: BT-549 breast
[4] = system: CCRF-CEM leukemia
[5] = system: HL-60(TB) leukemia
[6] = system: HS 578T breast
[7] = system: LOX IMVI melanoma
[8] = system: NCI-H226 lung
[9] = system: NCI/ADR-RES ovarian
[10] = system: OVCAR-3 ovarian
[11] = system: SW-620 colon
[12] = system: UACC-62 melanoma

SMILES	TGI [1]	TGI [2] [µM]	TGI [3]	TGI [4]	TGI [5] [µM]	TGI [6] [µM]	TGI [7]	TGI [8]	TGI [9]	TGI [10]	TGI [11] [µM]	TGI [12]	GI50 [2] [µM]	GI50 [9] [µM]	GI50 [10] [µM]
O=C1NC(N/N=C/C(O)C(O)C(O)C(O)CO)=N/C1=C\c1cccs1 (configuration not stated)	> 100 µM	> 100	> 100 µM	> 100 µM	> 100	> 100	> 100 µM	> 100 µM	> 100 µM	> 100 µM	> 100	> 100 µM			
C=C1CC(CNc2cc(Cl)nc(N)n2)C1	> 100 µM	76.3	> 100 µM	> 100 µM	> 100	> 100	> 100 µM	> 100 µM	> 100 µM	> 100 µM	> 100	> 100 µM			
CC1(C)OC[C@@]2([C@@H]3CC[C@@H](C3)C2(C)C)N1O	> 100 µM	> 100	> 100 µM	> 100 µM	> 100	> 100	> 100 µM	> 100 µM	> 100 µM	> 100 µM	> 100	> 100 µM			
NNC(=O)CCCCCCCC(=O)O	> 100 µM	> 100	> 100 µM	> 100 µM	> 100	> 100	> 100 µM	> 100 µM	> 100 µM	> 100 µM	> 100	> 100 µM			
CO/N=C1/C(n2[nH]c(=O)n(-c3ccccc3)c2=O)C2C=CC1n1c(=O)n(-c3ccccc3)c(=O)n12 (configuration not stated)	> 100 µM	> 100	> 100 µM	> 100 µM	> 100	> 100	> 100 µM	> 100 µM	> 100 µM	> 100 µM	> 100	> 100 µM			
COC(=O)c1ccc(NCC2=CC(=O)c3ccccc3C2=O)cc1	43.2 µM	54.2	42.2 µM	> 100 µM	> 25.9	76.4	23.3 µM	39.2 µM	90.6 µM	26.7 µM	54.5	27.6 µM			
N#C[C@](CO)(NC(=O)OCc1ccccc1)C(F)F	> 100 µM	> 100	> 100 µM	> 100 µM	> 100	> 100	> 100 µM	> 100 µM	> 100 µM	> 100 µM	> 100	> 100 µM			
COc1cccc2c1C(=O)c1ccc3cc(CO)cc(O)c3c1C2=O	4.24 µM	9.62	6.31 µM	2.02 µM	0.461	9.59	5.96 µM	5.54 µM	2.28 µM	0.497 µM	1.2	1 µM			
c1ccc2c(Cc3c[nH]c4ccccc34)c[nH]c2c1	33.6 µM	> 100	36.8 µM	37.2 µM	33.4	63.3	49.8 µM	22.5 µM	62 µM	30.8 µM	61.6	> 100 µM			
O=C(c1ccco1)N1CCN(C(=O)c2ccco2)C1=S	12.8 µM	35.8	33.9 µM	5.7 µM	7.16	> 100	14.9 µM	51.5 µM	> 79.7 µM	11.6 µM	24.7	19.1 µM	16.6		
CCOC(=O)C1(Cc2ccccc2)CCN(C(=O)c2ccccc2)C2C1C2(Cl)Cl (configuration not stated)	44.2 µM	40	62.2 µM	54.1 µM	32.6	71.5	34.5 µM	63.4 µM	69 µM	47.1 µM	> 100	27.2 µM			
COc1cc(/C=C2\CCc3cc(OC)c(OC)cc3C2=O)cc(OC)c1	48.7 µM	39.8	65.8 µM	> 60 µM	> 24	> 100	30.9 µM	> 100 µM	10.9 µM	> 42 µM	> 100	18.4 µM			
CC1(C)N=C(N)N=C(N)N1c1ccc(CCCCc2ccc(Cl)cc2Cl)cc1	15.3 µM	28.8	6.3 µM	76 µM	> 100	22.9	16.4 µM		> 100 µM	5.5 µM	12.9				
O=S(=O)(NC(c1ccccc1)(c1cc2ccccc2[nH]1)c1cc2ccccc2n1S(=O)(=O)c1ccccc1)c1ccccc1 (configuration not stated)	> 100 µM	> 100	> 100 µM	> 100 µM	> 100	> 100	> 100 µM	> 100 µM	> 100 µM	> 100 µM	> 100	> 100 µM			
CCO[C@H]1C[C@@H](c2ccccc2)[C@]2(C)C[C@H](C(=O)OC)ON2O1	> 100 µM	> 100	> 100 µM	> 100 µM	> 100	> 100	> 100 µM	> 100 µM	> 100 µM	> 100 µM	> 100	> 100 µM			
OCCCN(CCc1ccc(Cl)c(Cl)c1)CCN1CCCC1	60.4 µM	44.6	> 100 µM	> 100 µM	> 100	> 100	> 100 µM		> 100 µM	> 100 µM	> 100	31.5 µM			
C/C=C/[C@@H]1O[C@H](CC#C[Si](C)(C)C)[C@@]2(C=O)C(C)=CC[C@H](C(C)C)[C@@H]12	31.3 µM	89.6	49.7 µM	6.24 µM	19.2	> 100	18.2 µM	41.7 µM	71 µM	42.4 µM	59.5	32.6 µM			
O=S(=O)(O)Nc1ccc(-c2nc3ccccc3s2)cc1Cl	> 100 µM	> 100	> 100 µM	> 100 µM	> 100	> 100	> 100 µM	> 100 µM	> 100 µM	> 100 µM	> 100	> 100 µM			
Cn1c2ccccc2n2c3ccccc3c(=S)c(C#N)c12	> 100 µM	> 100	> 100 µM	> 100 µM	> 100	> 100	> 100 µM	> 100 µM	> 100 µM	> 100 µM	> 100	> 100 µM			
COc1ccc(NC(C)=O)c(C(=O)CCNC(C)=O)c1	> 100 µM	> 100	> 100 µM	> 100 µM	> 100	> 100	> 100 µM	> 100 µM	> 100 µM	> 100 µM	> 100	> 100 µM			
C(/C=N/NC1=NCCN1)=N\NC1=NCCN1	> 100 µM	> 100	> 100 µM	> 100 µM	34.2	> 100	> 100 µM	> 100 µM	> 100 µM	> 100 µM	> 100	> 100 µM			
CNC=O	> 10000 µM	> 10000	> 10000 µM	> 10000 µM	> 10000	> 10000	> 10000 µM	> 10000 µM	> 10000 µM	> 10000 µM	> 10000	> 9810 µM			
Cc1ccc(N2C(=O)CC(=O)N(NC(=O)C(C)Oc3ccccc3C)C2=S)cc1 (configuration not stated)	> 100 µM	> 100	> 100 µM	5.59 µM	> 100	> 100	> 100 µM	> 100 µM	> 100 µM	> 100 µM	> 100	> 100 µM			
COc1ccc2c(-c3ccc(O)cc3)c(Oc3ccccc3)c(=O)oc2c1	> 52.1 µM	> 62	> 100 µM	> 100 µM	> 100	99.1	> 100 µM	> 87.2 µM	> 100 µM	> 100 µM	> 100	> 100 µM			
COc1ncc(C#CC(=O)c2ccccc2OC)c(OC)n1	3.69 µM	35.2	5.21 µM	1.58 µM	4.63	> 32.4	0.794 µM	3.35 µM	4.78 µM	8.27 µM	2.73	7.49 µM			
Cc1ccc(NNc2cc(=O)[nH]c(=O)[nH]2)cc1Cl	28 µM	> 100	> 100 µM	62.4 µM	18.3	> 100	18.4 µM	> 100 µM	> 100 µM	28 µM	28.2	> 100 µM			
CC1C=C(NCC2(CO)CCC2)NC(N)=N1 (configuration not stated)	> 100 µM	> 100	> 100 µM	> 100 µM	> 100	> 100	> 100 µM	> 100 µM	> 100 µM	> 100 µM	> 100	> 100 µM			
COc1ccc(C2c3cc4c(cc3OC(N3CCOCC3)C2C)OCO4)c(OC)c1 (configuration not stated)	41.1 µM	15	87.7 µM	38.1 µM	> 31.4	8.22	23.8 µM	14.4 µM	9.68 µM	13.9 µM	52.5	20.9 µM			
O=[N+]([O-])c1cccc2nc3ccccc3c(NCCNCCO)c12	0.0259 µM and 0.121 µM	0.0264	0.0273 µM and 0.0259 µM	0.101 µM and 0.0455 µM	0.109	0.111	0.0184 µM and 0.112 µM	0.0495 µM and 0.0261 µM	2.15 µM and 14.9 µM	0.0268 µM and 0.0556 µM		0.0315 µM and 0.0174 µM		0.911	0.0114

From PubChem BioAssay (NCI)
